From ChEMBL document CHEMBL4739717, “Methods of treating cartilage disorders through inhibition of clk and dyrk” (2020)

Assays:
[1] = Induction of chondrogenesis in human MSC assessed as maximum activity at 30 nM incubated for 6 days by rhodamine B and Nile red staining based imaging analysis relative to control; format: functional; details: BMMSC, 144 h, time 6 day
[2] = Induction of chondrogenesis in human MSC assessed as incubated for 6 days by rhodamine B and Nile red staining based imaging analysis; format: functional; details: bmmsc
[3] = biological target: Dual specificity tyrosine-phosphorylation-regulated kinase 1A (Homo sapiens, UniProt Q13627); assay: Inhibition of recombinant DYRK1A (unknown origin) using Ser/Thr 18 peptide as substrate incubated for 1 hr in presence of ATP by FRET assay
[4] = Effect on Wnt signaling pathway in human SW480 cells harbouring TCF/LEF luciferase reporter gene and SP5-Luc reporter gene incubated for 36 to 48 hrs by luminescence assay; format: cell-based

Row | SMILES | EC50 [2] [nM] | EC50 [3] [nM] | EC50 [4] [nM] | Emax at 0.03 µM [1] [%]
1 | CN1CCN(c2nccc3[nH]c(-c4n[nH]c5ccc(-c6cncc(N)c6)nc45)nc23)CC1 | 100 | 45 | > 10000 | 135
2 | CS(=O)(=O)NCc1cc(F)cc(-c2nccc3[nH]c(-c4n[nH]c5ccc(-c6cncnc6)cc45)nc23)c1 | 30 | 96 | 40.5 | 73.1
3 | Nc1cncc(-c2ccc3[nH]nc(-c4nc5c(-c6ccccc6F)ccnc5[nH]4)c3c2)c1 | 30 | 5 | 2 | 113
4 | Cc1ccncc1-c1cc2c(-c3nc4c(-c5cc(F)cc(CNS(C)(=O)=O)c5)ccnc4[nH]3)n[nH]c2cn1 | 30 | 56 | 109 | 70
5 | Cn1cc(-c2cnc3[nH]nc(-c4nc5c(-c6cccc(F)c6)nccc5[nH]4)c3c2)cn1 | 30 | 39 | 11.1 | 74.9
6 | c1cncc(-c2ccc3[nH]nc(-c4nc5c(-c6cccnc6)cncc5[nH]4)c3n2)c1 | 30 | 47 | > 10000 | 83.8
7 | O=C(Nc1cncc(-c2cnc3[nH]nc(-c4cc5cnccc5[nH]4)c3c2)c1)c1ccccc1 | 30 | 2 | > 10000 | 69.9
8 | CCCC(=O)Nc1cncc(-c2ccc3[nH]nc(-c4nc5c(-c6ccsc6)ccnc5[nH]4)c3c2)c1 | 30 | 17 | 7.7 | 72.6
9 | Fc1cccc(-c2cncc3[nH]c(-c4n[nH]c5ccc(-c6cncc(CN7CCC(F)(F)C7)c6)cc45)nc23)c1 | 30 | 28 | 26.4 | 102
10 | O=C(Nc1cnccc1NC(=O)C1CC1)c1n[nH]c2ccc(-c3cncc(CN4CCCCC4)c3)cc12 | 30 | 38 | 120 | 53.7

Continued by falling EC50 [2], values first:

Row | EC50 [2] [nM] | EC50 [3] [nM] | EC50 [4] [nM] | SMILES | Emax at 0.03 µM [1] [%]
11 | 30 | 9 | 10.4 | Cc1cn(-c2nccc3[nH]c(-c4n[nH]c5ccc(-c6cncc(NC(=O)CC(C)C)c6)cc45)nc23)cn1 | 73.7
12 | 30 | 17 | 33 | O=C(Cc1ccccc1)Nc1cncc(-c2ccc3[nH]nc(-c4nc5c(-c6ccoc6)cncc5[nH]4)c3c2)c1 | 102
13 | 30 | 3 | 8250 | CN1CCN(c2cncc3[nH]c(-c4n[nH]c5ccc(-c6cncc(N)c6)cc45)cc23)CC1 | 50.9
14 | 30 | 61 | 4.6 | CCC(=O)Nc1cncc(-c2ccc3[nH]nc(-c4nc5c(-c6cccc(F)c6)cncc5[nH]4)c3c2)c1 | 139
15 | 30 | 60 | 3620 | Fc1ccc(-c2nccc3[nH]c(-c4n[nH]c5ccc(-c6cncc(CN7CCCC7)c6)cc45)cc23)cc1 | 98.5
16 | 30 | 14 | 2 | CCC(=O)Nc1cncc(-c2ccc3[nH]nc(-c4nc5c(-c6ccsc6)cncc5[nH]4)c3c2)c1 | 203
17 | 30 | 31 | > 10000 | CC(C)C(=O)Nc1cncc(-c2cnc3[nH]nc(-c4cc5c(-c6cc(F)cc(CNS(C)(=O)=O)c6)cncc5[nH]4)c3c2)c1 | 59.6
18 | 30 | 4 | 39 | O=C(Nc1cncc(-c2ccc3[nH]nc(-c4nc5c(N6CCCCC6)cncc5[nH]4)c3c2)c1)C1CCC1 | 106
19 | 10 | 2 | 75 | O=C(Nc1cncc(-c2ccc3[nH]nc(-c4cc5cnccc5[nH]4)c3c2)c1)C1CCC1 | 213
20 | 10 | 26 | 999 | O=C(Nc1cncc(-c2ccc3[nH]nc(-c4nc5c(-c6ccncc6)ccnc5[nH]4)c3n2)c1)C1CCCCC1 | 68.6
